Experimental data from ChEMBL document CHEMBL3797140, “Acridin-3,6-dialkyldithiourea hydrochlorides as new photosensitizers for photodynamic therapy of mouse leukemia cells” (Bioorg Med Chem, 2016).
Activity calls are given as the source filed them. The rule behind the calls is not given here.

What was measured:
L1210 [1] = assay: Induction of necrosis in mouse L1210 cells at 0.5 uM preincubated for 1 hr followed by 1.05 J/cm2 UV-A irradiation measured after 5 hrs by Annexin Red based flow cytometry; format: functional
L1210 [2] = assay: Decrease in ATP level in mouse L1210 cells at 0.5 uM preincubated for 1 hr followed by 1.05 J/cm2 UV-A irradiation measured after 6 hrs by luciferase reporter assay; format: functional; design: scale not given: the % may be the effect or the level left
[3] = Drug uptake in nucleus of mouse L1210 cells at 2 uM preincubated for 1 hr followed by 1.05 J/cm2 UV-A irradiation by SytoRed staining-based flow cytometry; format: ADME, cell-based; conditions: l1210, 2 µM
[4] = Drug uptake in mitochondria of mouse L1210 cells at 2 uM preincubated for 1 hr followed by 1.05 J/cm2 UV-A irradiation by MitoRed staining-based flow cytometry; format: ADME; conditions: l1210, 2 µM
[5] = Drug uptake in lysosome of mouse L1210 cells at 2 uM preincubated for 1 hr followed by 1.05 J/cm2 UV-A irradiation by LysoTracker staining-based flow cytometry; format: ADME, cell-based; conditions: l1210, 2 µM
L1210 [6] = assay: Phototoxicity against mouse L1210 cells assessed as cell viability preincubated for 1 hr followed by 1.05 J/cm2 UV-A irradiation measured after 48 hrs by MTT assay in presence of pepstatin A; format: functional, cell-based
L1210 [7] = assay: Phototoxicity against mouse L1210 cells assessed as cell viability preincubated for 1 hr followed by 1.05 J/cm2 UV-A irradiation measured after 48 hrs by MTT assay in presence of 3-methyladenine; format: functional, cell-based
L1210 [8] = assay: Induction of necrosis in mouse L1210 cells at >= 1 uM preincubated for 1 hr followed by 1.05 J/cm2 UV-A irradiation; format: functional
L1210 [9] = assay: Induction of apoptosis in mouse L1210 cells assessed as caspase 3 activation at 0.5 to 1 uM preincubated for 1 hr followed by 1.05 J/cm2 UV-A irradiation measured after 4 to 6 hrs by Western blot method; format: functional, cell-based
L1210 [10] = assay: Induction of apoptosis in mouse L1210 cells assessed as caspase 9 activation at 1 uM preincubated for 1 hr followed by 1.05 J/cm2 UV-A irradiation measured after 4 to 6 hrs by Western blot method; format: functional, cell-based
L1210 [11] = assay: Induction of apoptosis in mouse L1210 cells assessed as Bax level at 0.5 to 1 uM preincubated for 1 hr followed by 1.05 J/cm2 UV-A irradiation measured after 4 to 6 hrs by Western blot method; format: functional, cell-based
L1210 [12] = assay: Induction of apoptosis in mouse L1210 cells assessed as decrease in Bcl2 level at 0.5 to 1 uM preincubated for 1 hr followed by 1.05 J/cm2 UV-A irradiation measured after 4 to 6 hrs by Western blot method; format: functional, cell-based
L1210 [13] = assay: Induction of autophagy in mouse L1210 cells assessed as accumulation of LC3BII at 0.5 to 1 uM preincubated for 1 hr followed by 1.05 J/cm2 UV-A irradiation measured after 4 to 6 hrs by Western blot method; format: functional, cell-based
L1210 [14] = assay: Induction of apoptosis in mouse L1210 cells assessed as caspase 3 activation at 0.5 uM preincubated for 1 hr measured after 8 hrs by Western blot method in absence of light; format: cell-based; conditions: l1210, 8 h
L1210 [15] = assay: Induction of apoptosis in mouse L1210 cells assessed as caspase 9 activation at 0.5 uM preincubated for 1 hr measured after 8 hrs by Western blot method in absence of light; format: cell-based; conditions: l1210, 8 h
L1210 [16] = assay: Induction of apoptosis in mouse L1210 cells assessed as Bax level at 0.5 uM preincubated for 1 hr measured after 8 hrs by Western blot method in absence of light; format: cell-based; conditions: l1210, 8 h
L1210 [17] = assay: Induction of apoptosis in mouse L1210 cells assessed as decrease in Bcl2 level at 0.5 uM preincubated for 1 hr measured after 8 hrs by Western blot method in absence of light; format: cell-based; conditions: l1210, 8 h
L1210 [18] = assay: Induction of autophagy in mouse L1210 cells assessed as accumulation of LC3BII at 0.5 uM preincubated for 1 hr measured after 8 hrs by Western blot method in absence of light; format: cell-based; conditions: l1210, 8 h
[19] = Induction of ROS generation measured after UV-A irradiation by spin trapping agent DMPO based EPR spectroscopy; format: physicochemical
[20] = Cytotoxicity against human HL60 cells after 48 hrs by MTT assay; format: functional, cell-based; conditions: HL-60, 48 h
[21] = Cytotoxicity against human HL60/ADR cells after 48 hrs by MTT assay; format: functional, cell-based
[22] = Induction of ROS generation measured 2 mins after UV-A irradiation by spin trapping agent DMPO based EPR spectroscopy; format: physicochemical
L1210 [23] = assay: Induction of cell cycle arrest in mouse L1210 cells assessed as accumulation at G1 phase at 0.5 and 1 uM preincubated for 1 hr followed by 1.05 J/cm2 UV-A irradiation measured after 24 hrs by propidium iodide staining-based flow cytometry (reference value: 16.8 +/- 0.6%); format: functional
L1210 [24] = assay: Phototoxicity against mouse L1210 cells assessed as cell viability preincubated with 0.5 nM bafilomycin A1 followed by compound exposure for 1 hr followed by 1.05 J/cm2 UV-A irradiation measured after 48 hrs by MTT assay in presence of pepstatin A; format: functional, cell-based
L1210 [25] = assay: Phototoxicity against mouse L1210 cells assessed as cell viability preincubated with 10 nM chloroquine followed by compound exposure for 1 hr followed by 1.05 J/cm2 UV-A irradiation measured after 48 hrs by MTT assay in presence of pepstatin A; format: functional, cell-based
[26] = Drug uptake in lysosome of mouse L1210 cells at 2 uM preincubated with […] followed by compound exposure for 1 hr followed by 1.05 J/cm2 UV-A irradiation by LysoTracker staining-based flow cytometry; format: ADME, cell-based; conditions: l1210, 1 h
[27] = Drug uptake in lysosome of mouse L1210 cells at 2 uM preincubated with 10.5 nM bafilomycin A1 followed by compound exposure for 1 hr followed by 1.05 J/cm2 UV-A irradiation by LysoTracker staining-based flow cytometry; format: ADME, cell-based; conditions: l1210, 1 h

SMILES: CCCNC(=S)Nc1ccc2cc3ccc(NC(=S)NCCC)cc3nc2c1.Cl
- Activity (L1210 [1]): 24%
- Activity (L1210 [2]): 30%
- Drug uptake [3]: Active
- Drug uptake [4]: 53%
- Drug uptake [5]: Active
- Activity (L1210 [6]): inactive
- Activity (L1210 [7]): inactive
- Activity (L1210 [8]): 95%
- Activity (L1210 [9]): inactive
- Activity (L1210 [10]): Active
- Activity (L1210 [11]): inactive
- Activity (L1210 [12]): Active
- Activity (L1210 [13]): Active
- Activity (L1210 [14]): Non-toxic
- Activity (L1210 [15]): Non-toxic
- Activity (L1210 [16]): Non-toxic
- Activity (L1210 [17]): Non-toxic
- Activity (L1210 [18]): Non-toxic
- Activity [19]: Active
- IC50 [20]: 7.2 µM
- IC50 [21]: 7.2 µM
- Activity [22]: Active
- Activity (L1210 [23]): Active
- Activity (L1210 [24]): inactive
- Activity (L1210 [25]): inactive
- Drug uptake [26]: Not Active
- Drug uptake [27]: Not Active
